In patent publication US7417156B2, “Orally active, antimalarial, anticancer, artemisinin-derived trioxane dimers” (Johns Hopkins University, priority 2002, dated 2008):
Where two headings read alike, the source gives them in different places.

Assays:
[1] = test system: chloroquine-sensitive P. falciparum (NF54); assay: Antimalarial activity in vitro, [3H]hypoxanthine incorporation; assay type: cell-based; conditions: Plasmodium falciparum, read-out: IC50
HL-60(TB) = assay: NCI 60 cell line panel screen (SRB); assay type: cell-based, human
MOLT-4 = test system: MOLT-4
Outline: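 Sulforhodamine B staining of TCA-fixed cellular protein was the read-out, following 48 h compound exposure at 37 °C. Plates were pre-incubated 24 h before dosing, and five concentrations (routinely 10^−4 to 10^−8 molar) were tested in duplicate with time-zero and untreated controls. Values derive from test/control percentage growth relative to time-zero mass.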

EKVX = assay: NCI 60 cell line panel screen (SRB); assay type: cell-based, human
NCI-H460 = assay: NCI 60 cell line panel screen (SRB); assay type: cell-based, human
COLO 205 = assay: NCI 60 cell line panel screen (SRB); assay type: cell-based, human
HCT-15 = assay: NCI 60 cell line panel screen (SRB); assay type: cell-based, human
SNB-19 = assay: NCI 60 cell line panel screen (SRB); assay type: cell-based, human
SK-MEL-2 = assay: NCI 60 cell line panel screen (SRB); assay type: cell-based, human
UACC-257 = assay: NCI 60 cell line panel screen (SRB); assay type: cell-based, human
OVCAR-5 = assay: NCI 60 cell line panel screen (SRB); assay type: cell-based, human
786-0 = assay: NCI 60 cell line panel screen (SRB); assay type: cell-based, human
ACHN = assay: NCI 60 cell line panel screen (SRB); assay type: cell-based, human
MCF7 = assay: NCI 60 cell line panel screen (SRB); assay type: cell-based, human
HS 578T = assay: NCI 60 cell line panel screen (SRB); assay type: cell-based, human

IC50 ([1]; NF54, Table I, NF54 strain): 9.2 ± 1.7 nM
IC50 ([1]; NF54, running text b206, artemisinin): 7.7 nM
SMILES: C[C@@H]1CC[C@H]2[C@@H](C)C(=O)O[C@@H]3O[C@]4(C)CC[C@@H]1[C@]32OO4 [Artemisinin]
Log10LC50 (HL-60(TB); HL-60(TB) (Leukemia), LC50: PG=−50): >−4.00 log10M
Log10TGI50 (HL-60(TB); HL-60(TB) (Leukemia), TGI: PG=0): >−4.00 log10M
Log10GI50 (HL-60(TB); Leukemia, HL-60(TB)): −4.26
Log10GI50 (MOLT-4; Leukemia, MOLT-4): −4.73
Log10LC50 (MOLT-4; MOLT-4 (Leukemia), LC50: PG=−50): >−4.00 log10M
Log10TGI50 (MOLT-4; MOLT-4 (Leukemia), TGI: PG=0): >−4.00 log10M
concentration for cytotoxicity (percentage growth −50) (MOLT-4; human, 48 h): greater than 10^−4 M
Log10LC50 (EKVX; EKVX (Non-Small Cell Lung Cancer), LC50: PG=−50): >−4.00 log10M
Log10TGI50 (EKVX; EKVX (Non-Small Cell Lung Cancer), TGI: PG=0): >−4.00 log10M
Log10GI50 (EKVX; Non-Small Cell Lung Cancer, EKVX): >−4.00
Log10LC50 (NCI-H460; NCI-H460 (Non-Small Cell Lung Cancer), LC50: PG=−50): >−4.00 log10M
Log10TGI50 (NCI-H460; NCI-H460 (Non-Small Cell Lung Cancer), TGI: PG=0): >−4.00 log10M
Log10GI50 (NCI-H460; Non-Small Cell Lung Cancer, NCI-H460): >−4.00
Log10LC50 (COLO 205; COLO 205 (Colon Cancer), LC50: PG=−50): >−4.00 log10M
Log10TGI50 (COLO 205; COLO 205 (Colon Cancer), TGI: PG=0): >−4.00 log10M
Log10GI50 (COLO 205; Colon Cancer, COLO 205): >−4.00
Log10GI50 (HCT-15; Colon Cancer, HCT-15): >−4.00
Log10LC50 (HCT-15; HCT-15 (Colon Cancer), LC50: PG=−50): >−4.00 log10M
Log10TGI50 (HCT-15; HCT-15 (Colon Cancer), TGI: PG=0): >−4.00 log10M
Log10GI50 (SNB-19; CNS Cancer, SNB-19): >−4.00
Log10LC50 (SNB-19; SNB-19 (CNS Cancer), LC50: PG=−50): >−4.00 log10M
Log10TGI50 (SNB-19; SNB-19 (CNS Cancer), TGI: PG=0): >−4.00 log10M
Log10LC50 (SK-MEL-2; SK-MEL2 (Melanoma), LC50: PG=−50): >−4.00 log10M
Log10TGI50 (SK-MEL-2; SK-MEL-2 (Melanoma), TGI: PG=0): >−4.00 log10M
Log10GI50 (UACC-257; Melanoma, UACC-257): >−4.00
Log10LC50 (UACC-257; UACC-257 (Melanoma), LC50: PG=−50): >−4.00 log10M
Log10TGI50 (UACC-257; UACC-257 (Melanoma), TGI: PG=0): >−4.00 log10M
Log10LC50 (OVCAR-5; OVCAR-5 (Ovarian Cancer), LC50: PG=−50): >−4.00 log10M
Log10TGI50 (OVCAR-5; OVCAR-5 (Ovarian Cancer), TGI: PG=0): >−4.00 log10M
Log10GI50 (OVCAR-5; Ovarian Cancer, OVCAR-5): >−4.00
Log10LC50 (786-0; 786-0 (Renal Cancer), LC50: PG=−50): >−4.00 log10M
Log10TGI50 (786-0; 786-0 (Renal Cancer), TGI: PG=0): >−4.00 log10M
Log10GI50 (786-0; Renal Cancer, 786-0): >−4.00
Log10LC50 (ACHN; ACHN (Renal Cancer), LC50: PG=−50): >−4.00 log10M
Log10TGI50 (ACHN; ACHN (Renal Cancer), TGI: PG=0): >−4.00 log10M
Log10GI50 (ACHN; Renal Cancer, ACHN): >−4.00
Log10GI50 (MCF7; Breast Cancer, MCF7): >−4.00
Log10LC50 (MCF7; MCF7 (Breast Cancer), LC50: PG=−50): >−4.00 log10M
Log10TGI50 (MCF7; MCF7 (Breast Cancer), TGI: PG=0): >−4.00 log10M
Log10GI50 (HS 578T; Breast Cancer, HS 578T): >−4.00
Log10LC50 (HS 578T; HS 578T (Breast Cancer), LC50: PG=−50): >−4.00 log10M
Log10TGI50 (HS 578T; HS 578T (Breast Cancer), TGI: PG=0): >−4.00 log10M
